Results published in patent publication US11357779B2 (G1 Therapeutics, Inc., priority 2018, dated 2022).
Like-named read-outs stand apart in the source and are kept apart here.

Assay: Noncompartmental pharmacokinetic parameters (Cmax, Tmax, AUC, Racc) in QD and BID cohorts of Form B
Format: in vivo, human
Conditions: Compound III; for AUC(0-t) / Cmax / Tmax: human, plasma, oral
Experimental: Analysis of plasma concentration versus time data for calculation of standard pharmacokinetic (PK) parameters following oral administration was conducted using Phoenix WinNonlin version 6.3 using actual blood sampling times.
The following pharmacokinetic parameters were calculated from the concentration versus time data obtained in Example 1 for each of the above QD (200 mg, 300 mg, 400 mg, 500 mg, or 650 mg dosed) and BID (100 mg, 150 mg, or 200 mg doses) Form B of Compound II dosage cohorts: • Cmax—the observed peak plasma concentration determined from the plasma concentration versus time data obtained on Day 1 and Day 29, as applicable; • Tmax—the time to reach the observed peak plasma concentration from the plasma concentration versus time data obtained on Day 1 and Day 29, as applicable; • AUC—area under the plasma concentration versus time curve during a dosing interval on Day 1 and Day 29, as applicable; and • Racc—accumulation ratio calculated as AUCDay 29/AUCDay 1.

[1] = 100 mg BID of Form B, Cohort 6, Day 1
[2] = 100 mg BID of Form B, Cohort 6, Day 29
[3] = 150 mg BID of Form B, Cohort 7, Day 1
[4] = 150 mg BID of Form B, Cohort 7, Day 29
[5] = 200 mg BID of Form B, Cohort 8, Day 1
[6] = 200 mg BID of Form B, Cohort 8, Day 29
[7] = 200 mg QD of Form B, Cohort 1, Day 1
[8] = 200 mg QD of Form B, Cohort 1, Day 29
[9] = 300 mg QD of Form B, Cohort 2, Day 1
[10] = 300 mg QD of Form B, Cohort 2, Day 29
[11] = 400 mg QD of Form B, Cohort 3, Day 1
[12] = 400 mg QD of Form B, Cohort 3, Day 29
[13] = 500 mg QD of Form B, Cohort 4, Day 1
[14] = 500 mg QD of Form B, Cohort 4, Day 29
[15] = 650 mg QD of Form B, Cohort 5, Day 1
[16] = 650 mg QD of Form B, Cohort 5, Day 29

AUClast (Max) [1]: 8.61 ng·h/mL | AUClast (Min) [1]: 2.87 ng·h/mL | Cmax (Max) [1]: 2.12 ng/mL | Cmax (Min) [1]: 1.11 ng/mL | AUClast (Max) [2]: 21.6 ng·h/mL | AUClast (Min) [2]: 3.45 ng·h/mL | Cmax (Max) [2]: 3.11 ng/mL | Cmax (Min) [2]: 0.855 ng/mL | Tmax (Max) [2]: 12.0 h | AUClast (Max) [3]: 17.5 ng·h/mL | AUClast (Min) [3]: 15.7 ng·h/mL | Cmax (Max) [3]: 3.67 ng/mL | Cmax (Min) [3]: 2.93 ng/mL | AUClast (Max) [4]: 101 ng·h/mL | AUClast (Min) [4]: 19.4 ng·h/mL | Cmax (Max) [4]: 12.2 ng/mL | Cmax (Min) [4]: 2.93 ng/mL | AUClast (Max) [5]: 25.4 ng·h/mL | AUClast (Min) [5]: 6.18 ng·h/mL | Cmax (Max) [5]: 4.07 ng/mL | Cmax (Min) [5]: 1.40 ng/mL | AUClast (Max) [6]: 30.8 ng·h/mL | AUClast (Min) [6]: 15.2 ng·h/mL | Cmax (Max) [6]: 4.12 ng/mL | Cmax (Min) [6]: 1.49 ng/mL | Tmax (Max) [6]: 12.0 h | AUClast (Max) [7]: 58.5 ng·h/mL | AUClast (Min) [7]: 5.29 ng·h/mL | Cmax (Max) [7]: 7.82 ng/mL | Cmax (Min) [7]: 1.27 ng/mL | AUClast (Max) [8]: 64.2 ng·h/mL | AUClast (Min) [8]: 1.97 ng·h/mL | Cmax (Max) [8]: 6.11 ng/mL | Cmax (Min) [8]: 0.864 ng/mL | AUClast (Max) [9]: 65.2 ng·h/mL | AUClast (Min) [9]: 10.9 ng·h/mL | Cmax (Max) [9]: 6.40 ng/mL | Cmax (Min) [9]: 1.82 ng/mL | Tmax (Min) [9]: 60 min | AUClast (Max) [10]: 97.5 ng·h/mL | AUClast (Min) [10]: 45.1 ng·h/mL | Cmax (Max) [10]: 6.05 ng/mL | Cmax (Min) [10]: 4.70 ng/mL | Tmax (Max) [10]: 8.00 h | AUClast (Max) [11]: 29.8 ng·h/mL | AUClast (Min) [11]: 17.8 ng·h/mL | Cmax (Max) [11]: 6.87 ng/mL | Cmax (Min) [11]: 3.02 ng/mL | Tmax (Min) [11]: 60 min | AUClast (Max) [12]: 54.7 ng·h/mL | AUClast (Min) [12]: 32.2 ng·h/mL | Cmax (Max) [12]: 4.54 ng/mL | Cmax (Min) [12]: 2.55 ng/mL | AUClast (Max) [13]: 91.4 ng·h/mL | AUClast (Min) [13]: 61.6 ng·h/mL | Cmax (Max) [13]: 9.03 ng/mL | Cmax (Min) [13]: 6.84 ng/mL | AUClast (Max) [14]: 69.8 ng·h/mL | AUClast (Min) [14]: 59.8 ng·h/mL | Cmax (Max) [14]: 7.91 ng/mL | AUClast (Max) [15]: 174 ng·h/mL | AUClast (Min) [15]: 61.8 ng·h/mL | Cmax (Max) [15]: 16.5 ng/mL | Cmax (Min) [15]: 5.56 ng/mL | Tmax (Max) [15]: 8.00 h | AUClast (Max) [16]: 169 ng·h/mL | AUClast (Min) [16]: 80.6 ng·h/mL | Cmax (Max) [16]: 12.1 ng/mL | Cmax (Min) [16]: 5.30 ng/mL | Tmax (Max) [16]: 8.00 h | AUC(0-t) (100 mg, 100 mg BID of Form B, Cohort 6, Day 1, read-out: AUClast (Mean)): 5.37 ng·h/mL | AUC(0-t) (100 mg, 100 mg BID of Form B, Cohort 6, Day 1, read-out: AUClast (Median)): 5.18 ng·h/mL | Cmax (100 mg, 100 mg BID of Form B, Cohort 6, Day 1, read-out: Cmax (Mean)): 1.59 ng/mL | Cmax (100 mg, 100 mg BID of Form B, Cohort 6, Day 1, read-out: Cmax (Median)): 1.6 ng/mL | Tmax (100 mg, 100 mg BID of Form B, Cohort 6, Day 1, read-out: Tmax (Mean)): 3.17 h | Tmax (100 mg, 100 mg BID of Form B, Cohort 6, Day 1, read-out: Tmax (Median)): 3 h | AUC(0-t) (100 mg, 100 mg BID of Form B, Cohort 6, Day 29, read-out: AUClast (Mean)): 13 ng·h/mL | AUC(0-t) (100 mg, 100 mg BID of Form B, Cohort 6, Day 29, read-out: AUClast (Median)): 9.86 ng·h/mL | Cmax (100 mg, 100 mg BID of Form B, Cohort 6, Day 29, read-out: Cmax (Mean)): 1.89 ng/mL | Cmax (100 mg, 100 mg BID of Form B, Cohort 6, Day 29, read-out: Cmax (Median)): 1.56 ng/mL | Tmax (100 mg, 100 mg BID of Form B, Cohort 6, Day 29, read-out: Tmax (Mean)): 4.4 h | Tmax (100 mg, 100 mg BID of Form B, Cohort 6, Day 29, read-out: Tmax (Median)): 2 h | AUC(0-t) (150 mg, 150 mg BID of Form B, Cohort 7, Day 1, read-out: AUClast (Mean)): 16.5 ng·h/mL
Compound: O=C1NCC2(CCCCC2)n2c1cc1cnc(Nc3ccc(N4CCNCC4)cn3)nc12 [Compound III, 2′-((5-(piperazin-1-yl)pyridin-2-yl)amino)-7′,8′-dihydro-6′H-spiro[cyclohexane-1,9′-pyrazino[1′,2′:1,5]pyrrolo[2,3-d]pyrimidin]-6′-one]
